The values below come from publication PMC6848746 (Psychopharmacology, 2019).

Where two headings read alike, the source gives them in different places. Bounds are passed on as bounds.

By Ki is commonly meant the equilibrium dissociation constant of an inhibitor or competing ligand from its target. The low end stands for a stronger hold on the target, the high end for a looser hold on the target. One may read the EC50 as the concentration giving half of the maximal effect.

Experiment [1] has as its system NET. Nature of the experiment: NET-mediated release of [3H]MPP+ from rat brain synaptosomes. It is filed as biochemical. To be noted: relative to SERT, synaptosomal release.
Experiment [2] deals with NET. To be noted: synaptosomal uptake assay; ref Johnson et al. (1991a); cited from earlier work.
Another experiment has as its target T1, σ2 (Rattus norvegicus, UniProt Q5U3Y7).
T1 sequence (Q5U3Y7 1-176): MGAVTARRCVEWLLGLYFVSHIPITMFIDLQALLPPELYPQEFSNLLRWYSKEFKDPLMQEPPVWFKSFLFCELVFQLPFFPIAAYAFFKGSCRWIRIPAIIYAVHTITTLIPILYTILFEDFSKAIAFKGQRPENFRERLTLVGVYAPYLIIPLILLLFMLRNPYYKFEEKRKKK
Nature of the experiment: Radioligand binding.

For experiment [3], the system named is rats. To be noted: cited from earlier work.
A further experiment deals with T2, α1A (Homo sapiens, UniProt P35348).
T2 sequence (P35348 1-466): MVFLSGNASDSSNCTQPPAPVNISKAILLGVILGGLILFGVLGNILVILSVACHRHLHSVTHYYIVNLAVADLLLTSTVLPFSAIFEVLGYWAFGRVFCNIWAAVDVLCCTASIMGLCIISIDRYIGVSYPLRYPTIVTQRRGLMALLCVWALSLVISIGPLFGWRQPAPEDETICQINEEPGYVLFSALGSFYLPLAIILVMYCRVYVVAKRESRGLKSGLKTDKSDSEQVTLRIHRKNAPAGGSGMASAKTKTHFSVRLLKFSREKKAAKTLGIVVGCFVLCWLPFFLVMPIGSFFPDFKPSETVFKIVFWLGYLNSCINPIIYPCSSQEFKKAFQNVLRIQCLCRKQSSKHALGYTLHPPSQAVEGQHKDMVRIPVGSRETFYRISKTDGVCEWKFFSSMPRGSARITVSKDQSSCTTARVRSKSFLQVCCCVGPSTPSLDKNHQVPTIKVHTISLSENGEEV
Nature of the experiment: Radioligand binding.

In experiment [4] the test system is rats. To be noted: drug discrimination, cited from earlier work.
The test system of experiment [5] is DAT. Particulars: synaptosomal uptake assay; ref Johnson et al. (1991a); cited from earlier work.
A further experiment has as its target D5 (Homo sapiens, UniProt P21918). Nature of the experiment: Radioligand binding.
Another experiment concerns the target SERT (Homo sapiens, UniProt P31645). To be noted: HEK cells expressing cloned transporters, cited from earlier work; for release of preloaded [3H]5-HT: at 100 μM, ref Simmler et al. 2014b, Luethi et al. 2017.
Experiment [6] addresses NET (Homo sapiens, UniProt P23975). Particulars: HEK cells expressing cloned transporters, cited from earlier work; for release of preloaded [3H]NE: at 100 μM, ref Simmler et al. 2014b, Luethi et al. 2017.
The next experiment deals with 5-HT receptors. Kind of experiment: Primary binding assay at 10 μM, 5-HT receptors. The arrangement: species or system Human.
For experiment [7], the target named is DAT (Homo sapiens, UniProt Q01959). To be noted: HEK cells expressing cloned transporters, cited from earlier work; for release of preloaded [3H]DA: at 100 μM, ref Simmler et al. 2014b, Luethi et al. 2017.
Where [8] appears, read: ref Oberlender and Nichols, 1991.

Sequence of SERT (P31645 whole entry): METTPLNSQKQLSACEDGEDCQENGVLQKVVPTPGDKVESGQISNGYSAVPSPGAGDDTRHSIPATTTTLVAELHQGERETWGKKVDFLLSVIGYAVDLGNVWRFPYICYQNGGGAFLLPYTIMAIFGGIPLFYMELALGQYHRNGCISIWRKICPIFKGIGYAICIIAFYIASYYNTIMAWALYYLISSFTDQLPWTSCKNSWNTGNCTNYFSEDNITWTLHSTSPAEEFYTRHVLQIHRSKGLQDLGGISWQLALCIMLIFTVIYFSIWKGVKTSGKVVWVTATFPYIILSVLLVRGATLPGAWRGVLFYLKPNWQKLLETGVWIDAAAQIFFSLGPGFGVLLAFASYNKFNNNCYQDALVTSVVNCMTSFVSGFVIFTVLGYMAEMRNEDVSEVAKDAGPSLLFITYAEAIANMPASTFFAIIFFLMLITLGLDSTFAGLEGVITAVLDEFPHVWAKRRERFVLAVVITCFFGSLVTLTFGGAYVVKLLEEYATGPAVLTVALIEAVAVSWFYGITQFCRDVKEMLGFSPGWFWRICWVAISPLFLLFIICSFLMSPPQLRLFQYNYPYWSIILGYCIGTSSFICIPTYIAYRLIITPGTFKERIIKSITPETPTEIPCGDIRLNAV
Sequence of NET (Homo sapiens, UniProt P23975) (P23975 whole entry): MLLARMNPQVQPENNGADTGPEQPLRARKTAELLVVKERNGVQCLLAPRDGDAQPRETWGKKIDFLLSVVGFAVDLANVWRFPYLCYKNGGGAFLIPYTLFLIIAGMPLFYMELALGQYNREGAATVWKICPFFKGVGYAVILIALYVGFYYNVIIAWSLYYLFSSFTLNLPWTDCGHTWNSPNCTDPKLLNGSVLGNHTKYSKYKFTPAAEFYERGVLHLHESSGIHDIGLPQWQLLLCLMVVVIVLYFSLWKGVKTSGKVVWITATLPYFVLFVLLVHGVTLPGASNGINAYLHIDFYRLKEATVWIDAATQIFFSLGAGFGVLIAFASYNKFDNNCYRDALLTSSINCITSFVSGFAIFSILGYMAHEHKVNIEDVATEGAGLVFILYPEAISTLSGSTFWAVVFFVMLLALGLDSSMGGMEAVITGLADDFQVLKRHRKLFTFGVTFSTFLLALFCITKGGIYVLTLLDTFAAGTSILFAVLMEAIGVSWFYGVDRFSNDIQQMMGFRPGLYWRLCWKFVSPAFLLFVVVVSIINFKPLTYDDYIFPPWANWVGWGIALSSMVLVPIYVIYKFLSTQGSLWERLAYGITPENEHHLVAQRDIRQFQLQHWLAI
Sequence of D5 (P21918 whole entry): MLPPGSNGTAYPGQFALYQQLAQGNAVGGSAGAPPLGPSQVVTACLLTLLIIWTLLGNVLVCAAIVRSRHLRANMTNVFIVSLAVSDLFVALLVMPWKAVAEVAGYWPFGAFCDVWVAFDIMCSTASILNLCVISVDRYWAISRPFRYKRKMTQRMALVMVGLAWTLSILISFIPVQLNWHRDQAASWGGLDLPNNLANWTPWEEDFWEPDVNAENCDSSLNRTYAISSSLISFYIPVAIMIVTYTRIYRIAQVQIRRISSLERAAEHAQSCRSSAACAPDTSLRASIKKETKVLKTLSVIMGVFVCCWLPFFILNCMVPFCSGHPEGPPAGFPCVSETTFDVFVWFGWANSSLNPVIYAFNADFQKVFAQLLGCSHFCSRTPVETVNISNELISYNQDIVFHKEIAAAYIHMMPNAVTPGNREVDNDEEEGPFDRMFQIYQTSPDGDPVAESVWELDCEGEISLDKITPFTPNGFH
Sequence of DAT (Homo sapiens, UniProt Q01959) (Q01959 whole entry): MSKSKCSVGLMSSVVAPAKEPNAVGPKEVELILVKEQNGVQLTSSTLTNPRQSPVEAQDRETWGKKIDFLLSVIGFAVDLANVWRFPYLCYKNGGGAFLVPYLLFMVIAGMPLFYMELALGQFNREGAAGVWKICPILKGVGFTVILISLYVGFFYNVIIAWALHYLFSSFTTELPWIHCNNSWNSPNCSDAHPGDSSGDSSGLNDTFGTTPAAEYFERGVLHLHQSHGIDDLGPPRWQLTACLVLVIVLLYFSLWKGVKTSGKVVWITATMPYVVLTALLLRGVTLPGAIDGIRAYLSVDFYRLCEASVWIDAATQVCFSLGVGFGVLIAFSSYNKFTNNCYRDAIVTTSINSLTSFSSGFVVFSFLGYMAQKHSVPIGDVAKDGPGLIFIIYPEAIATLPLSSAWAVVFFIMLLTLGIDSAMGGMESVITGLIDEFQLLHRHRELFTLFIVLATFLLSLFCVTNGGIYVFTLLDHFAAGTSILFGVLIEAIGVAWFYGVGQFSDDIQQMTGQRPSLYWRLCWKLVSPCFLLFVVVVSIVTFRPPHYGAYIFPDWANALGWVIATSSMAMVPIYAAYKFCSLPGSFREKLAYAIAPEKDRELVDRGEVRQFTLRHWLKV

Turning to `COc1cc2c(cc1C)CC(N)C2` (stereo not drawn) [MMAI, 5-methoxy-6-methyl-2-aminoindan], the “fold lower release potency at NET” value with NET [1] is recorded as 100 fold. In the experiment on NET [2], the “fold difference [3H]5-HT uptake IC50 vs [3H]NE uptake IC50” value is 55 fold. Moreover, the Ki at σ2, on α1A and at D5 was more than 10 µM in each case. Further, in the experiment on rats [3] (ref Marona-Lewicka et al. 1996), the place conditioning effect result is “conditioned place aversion”. The “substitution in (+)-amphetamine-trained rats” value in the experiment with rats [4] (ref Johnson et al. 1991b) is recorded as “did not substitute”. Moreover, the “substitution in rats trained to discriminate MDMA and S-(+)-MBDB” value with rats [4] (ref Johnson et al. 1991b) is “fully substituted”. The “fold difference [3H]5-HT uptake IC50 vs [3H]DA uptake IC50” value with DAT [5] is listed as 93 fold. Moreover, the “release of preloaded [3H]5-HT” value on SERT is reported as “released”.
`NC1Cc2cc3c(cc2C1)OCO3` [MDAI, 5,6-methylenedioxy-2-aminoindan]: at NET [6], the “release of preloaded [3H]NE” value is “released”. The EC50 at NET [6] (read-out: release of preloaded [3H]NE EC50, ref Eshleman et al. 2017) is 0.57 µM; at DAT [7] (read-out: release of preloaded [3H]DA EC50, ref Eshleman et al. 2017), 24 µM; at SERT (read-out: release of preloaded [3H]5-HT EC50, ref Eshleman et al. 2017), 2.9 µM. Further, the “displacement at 5-HT receptors” value in the experiment with 5-HT receptors is listed as less than 50%. The Ki at σ2, on α1A and on D5 was more than 10 µM each time. Further, in the experiment with rats [3] (ref Gatch et al. 2016), the place conditioning effect result was “conditioned place preference”. Moreover, the “drug-appropriate responding in (+)-methamphetamine-trained rats” value with rats [4] (ref Gatch et al. 2016) was 75%. Besides, the “substitution in cocaine-trained rats” value with rats [4] (ref Gatch et al. 2016) is “full substitution”. Further, in the experiment with rats [4] (ref Nichols et al. 1990, Oberlender and Nichols 1990, Malmusi et al. 1996, Gatch et al. 2016), the “substitution for MDMA and S-(+)-MBDB” value is recorded as “substituted”. Further, in the experiment on rats [4] (setting [8]), the “substitution in (+)-amphetamine-trained rats” value is listed as “did not substitute”. Further, at DAT [7], the “release of preloaded [3H]DA” value is recorded as “not affected”. In addition, the “fold difference [3H]5-HT uptake IC50 vs [3H]DA uptake IC50” value in the experiment on DAT [5] is listed as 10 fold. Also, at SERT (ref Eshleman et al. 2017), the “selectivity for 5-HT vs. DA release” value is on record as ~ 10 fold. In addition, the “release of preloaded [3H]5-HT” value at SERT is on record as “released”.
For the molecule `COc1ccc2c(c1)CC(N)C2` (stereo not drawn) [5-MeO-AI, 5-methoxy-2-aminoindan], the “fold lower release potency at NET” value with NET [1] came to 6 fold. The Ki on σ2, at α1A and at D5 was more than 10 µM in each case.
As to `NC1Cc2ccccc2C1` [2-AI, 2-aminoindan], at NET [6], the “release of preloaded [3H]NE” value is on record as “induced the release”. In addition, in the experiment with 5-HT receptors, the “displacement at 5-HT receptors” value was less than 50%. The Ki at σ2, on α1A and at D5 was more than 10 µM throughout. Also, the “substitution for (+)-amphetamine” value with rats [4] (ref Glennon et al. 1984) is “fully substituted”. Also, the “substitution in (+)-amphetamine-trained rats” value with rats [4] (setting [8]) is recorded as “partial substitution”. Besides, the “release of preloaded [3H]DA” value at DAT [7] was “induced the release”.
